{"source": "paper PMC3472974", "about": "“The Bite of the Honeybee: 2-Heptanone Secreted from Honeybee Mandibles during a Bite Acts as a Local Anaesthetic in Insects and Mammals” (PLoS ONE, 2012)", "key": {"hNav1.2 channels": {"target": "T1, hNav1.2 channels (Homo sapiens, UniProt Q99250)", "T1 construct": "expressed in transfected cells; host or cells: CHO-K1 (ATCC CCL-61)", "T1 sequence (Q99250 whole entry)": "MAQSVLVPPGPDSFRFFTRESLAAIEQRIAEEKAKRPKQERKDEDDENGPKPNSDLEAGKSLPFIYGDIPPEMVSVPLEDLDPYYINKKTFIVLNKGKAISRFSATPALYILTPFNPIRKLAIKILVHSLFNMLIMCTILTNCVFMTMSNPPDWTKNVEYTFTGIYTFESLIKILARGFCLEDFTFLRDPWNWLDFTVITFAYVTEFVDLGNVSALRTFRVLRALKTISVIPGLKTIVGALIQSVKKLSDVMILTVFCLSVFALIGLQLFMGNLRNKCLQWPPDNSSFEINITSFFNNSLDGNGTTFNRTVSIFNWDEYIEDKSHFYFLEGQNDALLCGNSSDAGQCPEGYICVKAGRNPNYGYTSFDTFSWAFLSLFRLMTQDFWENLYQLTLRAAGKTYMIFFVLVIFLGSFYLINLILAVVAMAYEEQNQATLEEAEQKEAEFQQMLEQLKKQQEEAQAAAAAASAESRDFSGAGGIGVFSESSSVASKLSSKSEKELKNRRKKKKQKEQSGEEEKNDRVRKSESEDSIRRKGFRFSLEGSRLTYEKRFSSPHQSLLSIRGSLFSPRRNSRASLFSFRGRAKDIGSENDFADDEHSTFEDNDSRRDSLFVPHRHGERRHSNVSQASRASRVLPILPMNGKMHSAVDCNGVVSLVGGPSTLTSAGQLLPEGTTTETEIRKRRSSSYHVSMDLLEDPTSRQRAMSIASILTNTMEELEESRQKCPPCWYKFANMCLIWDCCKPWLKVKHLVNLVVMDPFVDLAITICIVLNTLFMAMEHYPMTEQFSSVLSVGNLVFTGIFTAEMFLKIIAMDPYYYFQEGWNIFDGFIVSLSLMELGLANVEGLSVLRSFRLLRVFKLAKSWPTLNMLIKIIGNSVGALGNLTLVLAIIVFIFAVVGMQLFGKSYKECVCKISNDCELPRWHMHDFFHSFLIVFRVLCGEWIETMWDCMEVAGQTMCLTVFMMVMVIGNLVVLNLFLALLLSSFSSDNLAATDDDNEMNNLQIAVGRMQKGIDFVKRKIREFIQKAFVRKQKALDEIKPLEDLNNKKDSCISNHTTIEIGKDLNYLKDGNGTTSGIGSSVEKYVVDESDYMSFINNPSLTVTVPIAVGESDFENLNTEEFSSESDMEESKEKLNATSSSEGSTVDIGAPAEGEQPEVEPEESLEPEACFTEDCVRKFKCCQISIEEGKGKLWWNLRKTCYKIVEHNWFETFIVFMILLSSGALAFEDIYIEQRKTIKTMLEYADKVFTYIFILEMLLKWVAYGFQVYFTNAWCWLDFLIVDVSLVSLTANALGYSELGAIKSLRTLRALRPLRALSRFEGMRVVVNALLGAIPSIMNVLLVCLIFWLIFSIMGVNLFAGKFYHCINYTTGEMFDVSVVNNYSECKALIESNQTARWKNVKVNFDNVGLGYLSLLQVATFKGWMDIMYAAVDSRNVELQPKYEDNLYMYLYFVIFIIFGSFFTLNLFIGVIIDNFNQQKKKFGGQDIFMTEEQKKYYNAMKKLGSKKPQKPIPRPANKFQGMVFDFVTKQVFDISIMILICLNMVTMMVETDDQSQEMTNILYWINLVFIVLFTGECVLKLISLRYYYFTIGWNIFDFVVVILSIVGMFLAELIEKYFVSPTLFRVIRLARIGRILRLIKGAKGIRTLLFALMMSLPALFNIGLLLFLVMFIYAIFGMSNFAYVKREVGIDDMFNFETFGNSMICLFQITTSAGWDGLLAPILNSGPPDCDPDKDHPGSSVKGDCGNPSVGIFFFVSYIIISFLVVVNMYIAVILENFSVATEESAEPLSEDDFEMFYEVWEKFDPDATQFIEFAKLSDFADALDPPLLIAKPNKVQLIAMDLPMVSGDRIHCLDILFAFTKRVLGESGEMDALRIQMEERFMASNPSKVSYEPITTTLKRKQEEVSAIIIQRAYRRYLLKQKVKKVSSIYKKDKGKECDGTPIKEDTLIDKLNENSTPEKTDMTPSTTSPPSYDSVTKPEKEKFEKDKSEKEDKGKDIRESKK", "assay": "Patch-clamp (PatchXpress 7000A) on transfected CHO cells, hNav1.2", "type": "cell-based", "conditions": "for pIC50: CHO cells, n = 6, mean ± SEM, 2-H exposure limited to 3 min; for times less active than lidocaine: hNav1.2", "text": "To test whether 2-H can act by blocking VGNaCs, the PatchXpress 7000A was used. Mammalian CHO (Chinese hamster ovary) transfected with ion hNav1.2 and hNav1.6 channels cDNAs (SCN2A and SCN8A genes) were exposed to 2-H under both tonic and phasic conditions. The mammalian CHO-K1 epithelial embryonic cell line (ATCC number CCL-61) from Cricetulus griseus was obtained from ATCC, Manassas, VA. CHO-K1 cells were transfected with either hNav1.2 or hNav1.6 channel cDNA (SCN2A and SCN8A genes, respectively) and were exposed to 2-H under both tonic and phasic conditions.\nThe effects of 2-H were evaluated on hNav1.2 at 0.73, 1.46, 2.19, and 2.92 mg/mL and on hNav1.6 channels at 0.1, 0.36, 0.73, and 1.46 mg/mL, with each concentration tested in at least six cells (n = 6). Cells were exposed to each concentration of 2-H and measurements of the inward current were obtained within the first 3 min of exposure. […] Since the PatchXpress has open cell chambers where the testing occurs, there is no way to hermetically seal the experiment.\nBased on this analysis, we estimated the IC50."}, "wax moth larvae (WML)": {"system": "wax moth larvae (WML)", "assay": "Locomotory pattern of tethered wax moth larvae after injection", "type": "in vivo, Galleria mellonella", "conditions": "2.5 µL injected (8.15 mg per 1 g body weight), larger WML body weight 0.25 g", "text": "To monitor the constant locomotory pattern of WML, the probe of a force-displacement transducer (FT-03C, Grass Instrument Company, USA), attached to a micromanipulator, was hooked onto the tail of the WML, while the head was carefully pinned to a wax substrate, [14]. The electrical signal generated by the rhythmic force produced during locomotion was amplified and fed to a computer through a data acquisition card interface (Keithley KPCI 3102, Keithley Instruments, Cleveland, OH, USA). Software designed using the facilities of Labview (Labview 5.1, National Instruments USA) permitted analysis of the recorded data."}, "honeybees": {"system": "honeybees", "assay": "Recruitment of defensive honeybees at the colony entrance, BeeSCAN counters", "type": "in vivo, Apis mellifera", "conditions": "control 46.42", "method": "We first tested the dominant hypothesis that honeybees secrete 2-H as an alarm pheromone that recruits other honeybees in the face of a potential threat. We monitored honeybee response to different doses of 2-H applied at colony entrances. In control colonies, which were not exposed to 2-H, an average of 46.42 bees left the colony per minute (n = 5, SEM = 0.43). There was no statistical difference, 10 minutes after application, between the mean number of bees recruited in control colonies and those recruited in colonies exposed to 0.1 µL 2-H (mean = 47.18, n = 5, SEM = 0.36, p = 1.000). In contrast, higher doses of 2-H acted as a repellent.\nWe conducted field experiments at the apiary, in which we used electronic monitoring devices (BeeSCAN v2.03) to test whether the presence of 2-H on the colony flight boards stimulated recruitment of defensive honeybees. The monitoring devices counted the number of honeybees exiting the beehive once per minute for 10 minutes for each of the five colonies per treatment. […] To apply 2-H, we followed the standard methodology described in previous experiments."}, "[1]": {"system": "isolated rat sciatic nerve", "assay": "tissue or blood", "text": "The ex vivo studies used both male and female rats weighing between 230 and 250 g. Animals were sacrificed using light anaesthesia with CO2 and cervical dislocation. The sciatic nerve of the rat, consisting of 27,000 sciatic nerve fibres, was isolated in a three-chamber recording bath (Fig. 5b). The sciatic nerves were dissected from the spinal cord to the knee, immersed in oxygenated (O2, 100%) saline solution and cleaned. The composition of the saline was (in mmoles/L): 136 NaCl, 11 glucose, 4.7 KCl, 2.4 CaCl2, 1.1 MgCl2, 1 NaHCO3, 10 HEPES, pH = 7.2). All experiments were performed at a constant temperature, 26.0±1.0°C. […] The nerve was mounted in a three-chambered recording bath made of Plexiglas, which is described elsewhere, [30]. The recording bath consisted of the recording (R in Fig. 5b), perfusion (P) and stimulating (S) chambers, each with a volume of 12 mL. The nCAP (Fig. 5a) was generated by stimulating (1 Hz) the part of the nerve in the stimulating chamber and was recorded in the recording chamber every second using standard electrophysiological methods. The nCAP was monitored throughout the experiment as an indication of the vitality of the nerve fibres in the recording bath. […] Immediately after the nCAP was eliminated, the saline+compound was removed and the nerve was washed out. Then, recovery of the nCAP in normal stagnant saline was monitored for 24 h. It is worth noting that the recording bath is designed in such a way that the chambers with the saline and 2-H (the nerves and the recording electrodes) was shielded from the air by using the cover (c in Fig. 5b) to avoid evaporation of the volatile 2-H. The saline with 2-H was added through a small diameter opening on the cover.\nFor further data analysis, the amplitude of the nCAPs, estimated from baseline to peak (Fig. 5), were measured at a specific time (every 1.0 s, 1.0 min or 1.0 h) and were expressed as a percentage of the amplitude of the nCAP at t = 0 (which was considered to be 100%). In the neuropharmacological experiments, time t = 0 was considered the time before application of the compound under investigation. […] The data were fitted in the program GraphPad Prism 5.0 using a one-phase exponential decay equation for the IC50. Data were analyzed by one-way ANOVA and Bonferroni’s post hoc tests, when required. Significance was determined using Students t-test or ANOVA as appropriate (p<0.05)."}, "nerves of the rat tail": {"system": "nerves of the rat tail", "set-up": "method as in PMID 6093852", "conditions": "cited from earlier work"}}, "note": "pIC50: −log10 of the molar value. Marks after values point to notes of the source that are not given here.", "data": [{"smiles": "CCCCCC(C)=O", "note": "[2-H, 2-heptanone]", "values": [{"measurement": "pIC50", "setting": "hNav1.2 channels; Phasic Experiment", "result": 2.18}, {"measurement": "pIC50", "setting": "hNav1.2 channels; Tonic Experiment", "result": 2.04}, {"measurement": "times less active than lidocaine", "setting": "hNav1.2 channels; phasic experiments", "result": 7.50, "unit": "times"}, {"measurement": "times less active than lidocaine", "setting": "hNav1.2 channels; tonic experiments", "result": 3.97, "unit": "times"}, {"measurement": "effect on locomotory pattern", "setting": "wax moth larvae (WML)", "result": "body movement stopped abruptly"}, {"measurement": "recovery time of locomotory pattern", "setting": "wax moth larvae (WML); n = 8", "result": 87.62, "unit": "min"}, {"measurement": "mean number of bees leaving the colony per minute", "setting": "honeybees; 0.1 µL 2-H at colony entrance, 10 minutes after application, p = 1.000", "result": 47.18, "unit": "per minute"}, {"measurement": "mean number of honeybees exiting the hive per minute", "setting": "honeybees; 10 µL 2-H at colony entrance, p = 0.003", "result": 42.54, "unit": "per minute"}, {"measurement": "mean number of honeybees exiting the hive per minute", "setting": "honeybees; 1000 µL 2-H at colony entrance, p = 0.002", "result": 40.88, "unit": "per minute"}, {"measurement": "neurotoxic action in 24 h monitoring of nerve vitality", "setting": "[1]", "result": "no neurotoxic action"}, {"measurement": "IT0 (time required for 100% inhibition of the nCAP)", "setting": "[1]; 1.41 mg/mL", "result": "517.5 ± 25.62", "unit": "s"}, {"measurement": "IT50 (time to inhibit nCAP amplitude to 50% of control)", "setting": "[1]; 1.41 mg/mL", "result": "109.7 ± 2.87", "unit": "s"}, {"measurement": "IT0 (time required for 100% inhibition of the nCAP)", "setting": "[1]; 2.28 mg/mL", "result": "358.8 ± 18.07", "unit": "s"}, {"measurement": "IT50 (time to inhibit nCAP amplitude to 50% of control)", "setting": "[1]; 2.28 mg/mL", "result": "108.9 ± 0.22", "unit": "s"}, {"measurement": "IT0 (time required for 100% inhibition of the nCAP)", "setting": "[1]; 3.41 mg/mL", "result": "221.88 ± 7.32", "unit": "s"}, {"measurement": "IT50 (time to inhibit nCAP amplitude to 50% of control)", "setting": "[1]; 3.41 mg/mL", "result": "39.14 ± 4.84", "unit": "s"}, {"measurement": "time to complete elimination of the nCAP", "setting": "[1]; 3.41 mg/mL", "result": 221.88, "unit": "s"}, {"measurement": "IT0 (time required for 100% inhibition of the nCAP)", "setting": "[1]; 10 mg/mL", "result": "195 ± 12", "unit": "s"}, {"measurement": "IT50 (time to inhibit nCAP amplitude to 50% of control)", "setting": "[1]; 10 mg/mL", "result": "22.3 ± 1.1", "unit": "s"}, {"measurement": "IC50", "setting": "[1]; Rattus norvegicus, read-out: IC50 from concentration-response curves of the IT0 values", "result": 469, "unit": "µg/mL"}, {"measurement": "IT0", "setting": "[1]; Table 3, 3.41 mg/mL, unit not given in Table 3, s", "result": "221.88±7.32^a seconds"}, {"measurement": "IT50", "setting": "[1]; Table 3, 3.41 mg/mL, unit not given in Table 3, seconds per Table 2", "result": "39.14 ± 4.84", "unit": "s"}, {"measurement": "recovery of nCAP amplitude after wash with normal saline", "setting": "[1]; after elimination of nCAP, remained at this level for at least 24 h, n = 8", "result": 89.51, "unit": "%"}, {"measurement": "neurotoxic effects in vivo", "setting": "nerves of the rat tail", "result": "no neurotoxic effects"}]}]}
